Positions count from the first letter of the chain named.

Our source for the Kd values is publication PMC3271384 (Molecular Genetics and Metabolism, 2012).

For one experiment, the target named is T1, AGT-Ma (Homo sapiens, UniProt P21549, P319L).
T1 sequence (P21549 1-392 P319L): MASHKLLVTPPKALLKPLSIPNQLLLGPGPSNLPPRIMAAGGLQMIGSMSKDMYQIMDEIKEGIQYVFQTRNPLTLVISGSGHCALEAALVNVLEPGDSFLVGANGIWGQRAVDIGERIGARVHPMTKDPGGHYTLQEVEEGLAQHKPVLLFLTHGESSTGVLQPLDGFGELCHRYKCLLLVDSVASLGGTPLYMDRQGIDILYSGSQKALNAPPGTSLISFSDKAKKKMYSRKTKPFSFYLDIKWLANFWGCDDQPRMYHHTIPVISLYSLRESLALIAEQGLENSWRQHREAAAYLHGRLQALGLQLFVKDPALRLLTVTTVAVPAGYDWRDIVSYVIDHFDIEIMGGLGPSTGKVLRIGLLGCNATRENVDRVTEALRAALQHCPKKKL
The experiment is described as follows: quenching of intrinsic fluorescence of apoenzyme. The format is binding.

For the next experiment, the target named is T2, AGT-Mi (Homo sapiens, UniProt P21549, G161C/I340M/P11L).
T2 sequence (P21549 1-392 P11L/G161C/I340M): T1 sequence (P21549 1-392 P319L) with P11L, G161C, L319P, I340M
The experiment is described as follows: quenching of intrinsic fluorescence of apoenzyme. The format is binding.

What is called Kd is the free concentration of one partner at which half of the binding sites on the other are occupied at equilibrium, for simple one-to-one binding. Read a high Kd as lower affinity. Consider `Cc1ncc(COP(=O)(O)O)c(C=O)c1O` [PLP], for which the dissociation constant (Kd) on AGT-Ma amounted to 190 ± 40 nM; on AGT-Mi it was 560 ± 90 nM.
